Reference: patent publication US20260049089A1, “KRAS INHIBITOR COMPOUND” (SHANGHAI APEIRON THERAPEUTICS COMPANY LIMITED, priority 2022, published 2026)
Read-outs that look alike come from different tables or passages of the source.

Assays:
[1] = the molecule shown is the open-chain precursor
pERK in AGS cells = assay: ERK phosphorylation cell assay, AGS; format: cell-based; conditions: 3 hours compound incubation, read-out: pERK AGS_IC50
In short: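 AGS […] cells, seeded overnight, were treated with compound for 3 hours at 37° C. pERK was detected by in-cell immunofluorescence, with GAPDH as normalizer, using 800CW/680RD secondary antibodies. Mean relative p-ERK levels were fitted against log concentration, with DMSO as negative and 10 μM Reference as positive control.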

pERK in AsPC-1 cells = assay: ERK phosphorylation cell assay, AsPC-1; format: cell-based; conditions: read-out: pERK AsPC-1_IC50
AGS cells = assay: 3D cell proliferation assay (CellTiter-Glo 3D), AGS; format: cell-based; conditions: 5 days, read-out: 3D Proliferation Inhibition AGS_IC50
Procedure: (§1) Using a nanoliter liquid handling system (LABCYTE, P-0200), the diluted test compounds were added to a 384-well low-adsorption cell culture plate. Cells were seeded into the wells, and the plate was placed in an incubator at 37° C. with 5% CO2. After co-incubating the compounds and cells for 5 days, CellTiter-Glo® 3D reagent was added. Luminescence values were measured using an EnVision Multilabel Plate Reader (luminescence is proportional to the ATP content in the system, and ATP content directly reflects the number of viable cells). Finally, the IC50 values (half-maximal inhibitory concentrations) of the compounds were determined using non-linear fitting equations in XLFit software with the following parameters: […]
(§2) X: Logarithm of compound concentration • Y: Inhibition rate (%)
(§3) [formula] • Negative control: DMSO • Positive control: Medium only

AsPC-1 cells = assay: 3D cell proliferation assay (CellTiter-Glo 3D), AsPC-1; format: cell-based; conditions: 5 days, read-out: 3D Proliferation Inhibition AsPC-1_IC50
Procedure: as §1, §2, §3

[2] = Homo sapiens, ASPC1, AsPC-1 cells

Row | Structure (SMILES) | ring closure, isolated yield ([1]; cc_pd bond, 15-membered ring, PdCl2(PPh3)2/CuI/I2, toluene/iPr2NH 1:1, 1.1 mM, 80.0 °C) [%] | ring closure, isolated yield ([1]; amine bond, 12-membered ring, PPh3/DIAD, THF, 32.5 mM, 65.0 °C) [%] | IC50 (pERK in AGS cells; Homo sapiens, AGS, 3 h) [nM] | IC50 (pERK in AsPC-1 cells; [2]) [nM] | IC50 (AGS cells; Homo sapiens, AGS, 120 h) [nM] | IC50 (AsPC-1 cells; Homo sapiens, ASPC1, 120 h) [nM] | IC50 (pERK in AGS cells) [nM] | IC50 (pERK in AsPC-1 cells; AsPC-1 cells) [nM] | IC50 (AGS cells) [nM] | IC50 (AsPC-1 cells) [nM]
1 | C#CCCCCC(=O)Nc1cc2c(N3C[C@H]4CC[C@@H](C3)N4C(=O)OC(C)(C)C)nc(OCC(F)(F)F)nc2c(F)c1-c1cc(OCOC)cc2ccc(F)c(C#C)c12 | 53 |  |  |  |  |  |  |  |  | 
2 | COCOc1cc(-c2c(NC(=O)OCc3ccccc3)cc3c(N4C[C@H]5CC[C@@H](C4)N5C(=O)OC(C)(C)C)nc(OCC(F)(F)F)nc3c2F)c2c(CCCCCCO)c(F)ccc2c1 |  | 34 |  |  |  |  |  |  |  | 
3 | C[C@@]1(O)CCCN(c2nc(OC[C@@]34CCCN3C[C@H](F)C4)nc3c(F)c4c(cc23)NCCCCCc2c(F)ccc3cc(O)cc-4c23)C1 [Example 16, 3,15-difluoro-13-(((2R,7aS)-2-fluorotetrahydro-1H-pyrrolidin-7a(5H)-yl)methoxy)-11-((R)-3-hydroxy-3-methylpiperidin-1-yl)-4,5,6,7,8,9-hexahydronaphthol[1′,8′:4,5,6][1]azacycloundecane [2,3-g]quinazolin-17-ol] |  |  | 31 | 102 | 83 | 288 |  |  |  | 
4 | C[C@@]1(O)CCCN(c2nc(OCC34CCCN3CC3(CC3)C4)nc3c(F)c4c(cc23)NCCCCCc2c(F)ccc3cc(O)cc-4c23)C1 (some centres unmarked) [Example 23] |  |  | 135 | 728 | 346 | 2100 | 157 | 754 |  | 
5 | C[C@@]1(O)CCCN(c2nc(OCC3(CN4CCOCC4)CC3)nc3c(F)c4c(cc23)NCCCCCc2c(F)ccc3cc(O)cc-4c23)C1 [Example 26] |  |  | 51 | 218 | 393 | 607 | 74 | 234 |  | 
6 | CN(C)CC1(COc2nc(N3CCC[C@@](C)(O)C3)c3cc4c(c(F)c3n2)-c2cc(O)cc3ccc(F)c(c23)CCCCCN4)CC1 [Example 27] |  |  | 99 | 338 | 314 | 1000 |  |  |  | 
7 | C[C@@]1(O)CCCN(c2nc(OCC34CCCN3CC(=CF)C4)nc3c(F)c4c(cc23)NCCCCCc2c(F)ccc3cc(O)cc-4c23)C1 (some centres unmarked) [Example 30] |  |  | 55 | 171 | 177 | 534 |  |  |  | 
8 | CN1CC(F)(F)C[C@H]1COc1nc(N2CCC[C@@](C)(O)C2)c2cc3c(c(F)c2n1)-c1cc(O)cc2ccc(F)c(c12)CCCCCN3 [Example 34, 13-(((S)-4,4-difluoro-1-methylpyrrolidin-2-yl)methoxy)-3,15-difluoro-11-((R)-3-hydroxy-3-methylpiperidin-1-yl)-4,5,6,7,8,9-hexahydro-naphtho[1′,8′:4,5,6][1]azacycloundecino[2,3-g]quinazoline-17-ol] |  |  | 8960 | > 10000 | 3660 | 3350 |  |  |  | 
9 | C[C@H](Oc1nc(N2CCC[C@@](C)(O)C2)c2cc3c(c(F)c2n1)-c1cc(O)cc2ccc(F)c(c12)CCCCCN3)[C@@H]1CCCN1C [Example 35, 3,15-Difluoro-11-((R)-3-hydroxy-3-methylpiperidin-1-yl)-13-((S)-1-((S)-1-methylpyrrolidin-2-yl)ethoxy)-4,5,6,7,8,9-hexahydro-naphtho[1′,8′:4,5,6][1]azacycloundecino[2,3-g]quinazoline-17-ol] |  |  | 4580 | > 10000 | 2690 | 2830 |  |  |  | 
10 | C[C@@]1(O)CCCN(c2nc(OCC34CCCN3CC(F)(F)C4)nc3c(F)c4c(cc23)NCCCCCc2c(F)ccc3cc(O)cc-4c23)C1 (some centres unmarked) [Example 36] |  |  | 1390 | 3910 | 1880 | 2480 |  |  |  | 
11 | CN(C)C1CN(c2nc(N3CCC[C@@](C)(O)C3)c3cc4c(c(F)c3n2)-c2cc(O)cc3ccc(F)c(c23)CCCCCN4)C1 [Example 39, (R)-13-(3-(dimethylamino)azetidinyl)-3,15-difluoro-11-(3-hydroxy-3-methylpiperidin-1-yl)-4,5,6,7,8,9-hexahydro-naphtho[1′,8′:4,5,6][1]azacycloundecino[2,3-g]quinazoline-17-ol] |  |  | > 10000 | > 10000 | 6390 | > 10000 |  |  |  | 
12 | C=C1CN2CCCC2(COc2nc(N3CCC[C@@](C)(O)C3)c3cc4c(c(F)c3n2)-c2cc(N)cc3ccc(F)c(c23)CCCCCN4)C1 (stereo partly drawn) [Example 40, (3R)-1-(17-amino-3,15-difluoro-13-((2-methylenetetrahydro-1H-pyrazin-7a(5H)-yl)methoxy)-4,5,6,7,8,9-hexahydronaphtho[1′,8′:4,5,6][1]azacycloundecano[2,3-g]quinazolin-11-yl)-3-methylpiperidin-3-ol] |  |  | 9110 | > 10000 | 2050 | 2170 |  |  |  | 
13 | C[C@@]1(O)CCCN(c2nc(OC[C@@]34CCCN3C[C@H](F)C4)nc3c(F)c4c(cc23)NCCOCCc2c(F)ccc3cc(O)cc-4c23)C1 [Example 43B] |  |  | 61 | 108 | 148 | 434 |  |  |  | 
14 | [2H]C([2H])([2H])N1CCOCCc2c(F)ccc3cc(O)cc(c23)-c2c1cc1c(N3CCC[C@@](C)(O)C3)nc(OC[C@@]34CCCN3C[C@H](F)C4)nc1c2F [Example 46, 3,15-difluoro-13-(((2R,7aS)-2-fluorotetrahydro-1H-pyrazin-7a(5H)-yl)methoxy)-11-((R)-3-hydroxy-3-methylpiperidin-1-yl)-9-(trideuteromethyl)-4,5,8,9-tetrahydro-7H-naphtho[1′,8′:7,8,9][1]oxa[4]azacycloundeca[5,6-g]quinazoline-17-ol] |  |  | 5.8 | 11 | 12 | 30 |  |  |  | 
15 | CN1CCOCCc2c(F)ccc3cc(O)cc(c23)-c2c1cc1c(N3CCC[C@@](C)(O)C3)nc(OC[C@@]34CCCN3C[C@H](F)C4)nc1c2F [Example 47, 3,15-difluoro-13-(((2R,7aS)-2-fluorotetrahydro-1H-pyrazin-7a(5H)-yl)methoxy)-11-((R)-3-hydroxy-3-methylpiperidin-1-yl)-9-methyl-4,5,8,9-tetrahydro-7H-naphtho[1′,8′:7,8,9][1]oxa[4]azacycloundeca[5,6-g]quinazoline-17-ol] |  |  |  |  |  |  | 2.7 | 7.9 | 8.8 | 28
16 | C=C1CN2CCCC2(COc2nc(N3CCC[C@@](C)(O)C3)c3cc4c(c(F)c3n2)-c2cc(O)cc3ccc(F)c(c23)CCOCCN4C)C1 (some centres unmarked) [Example 48] |  |  | 3.3 | 17 | 7.4 | 42 |  |  |  | 
17 | C=C1CN2C[C@H](F)C[C@]2(COc2nc(N3CCC[C@@](C)(O)C3)c3cc4c(c(F)c3n2)-c2cc(O)cc3ccc(F)c(c23)CCOCCN4C)C1 [Example 49] |  |  | 20 | 17 | 83 | 112 |  |  |  | 
18 | C=C1CN2CCC[C@@]2(COc2nc(N3CCC[C@@](C)(O)C3)c3cc4c(c(F)c3n2)-c2cccc3ccc(F)c(c23)CCOCCN4C)C1 [Example 54, (R)-1-(3,15-difluoro-9-methyl-13-(((S)-2-methylenetetrahydro-1H-pyrazin-7a(5H)-yl)methoxy)-4,5,8,9-tetrahydro-7H-naphtho[1′,8′:7,8,9][1]oxa[4]azacycloundeca[5,6-g]quinazoline-11-yl)-3-methylpiperidin-3-ol] |  |  | 659 | 892 | 885 | 1260 |  |  |  | 
19 | C=C1CN2CCC[C@@]2(COc2nc(N3CCC[C@@](C)(O)C3)c3cc4c(c(F)c3n2)-c2cc(N)cc3ccc(F)c(c23)CCOCCN4C)C1 [Example 56, (R)-1-(17-amino-3,15-difluoro-9-methyl-13-(((S)-2-methylenetetrahydro-1H-pyrazin-7a(5H)-yl)methoxy)-4,5,8,9-tetrahydro-7H-naphtho[1′,8′:7,8,9][1]oxa[4]azacycloundeca[5,6-g]quinazoline-11-yl)-3-methylpiperidin-3-ol] |  |  | 206 | 707 | 668 | 1460 |  |  |  | 
